# Test results as given in patent publication US11730712B2, “Functionalized long-chain hydrocarbon mono- and di-carboxylic acids and derivatives thereof, and their use for the prevention or treatment of disease” (ESPERVITA THERAPEUTICS, INC., priority 2021, dated 2023).
# Several values for one entry are separate records, joined by “and”; a condition that tells them apart may be missing. Identical values can stand only once.
# Tests used:
# Experiment in all cases: Kinase assay, wild type kinases
# Assay type in all cases: biochemical
# [1] = molecular target: T1, NEK2 (Homo sapiens, UniProt P51955); details: compound 10 μM, 10 μM ATP, duplicate (Data 1, Data 2), >100 activation, <100 inhibition; for remaining activity at 10 µM: read-out: % Enzyme Activity (relative to DMSO controls), NEK2
# T1 sequence (P51955 1-445): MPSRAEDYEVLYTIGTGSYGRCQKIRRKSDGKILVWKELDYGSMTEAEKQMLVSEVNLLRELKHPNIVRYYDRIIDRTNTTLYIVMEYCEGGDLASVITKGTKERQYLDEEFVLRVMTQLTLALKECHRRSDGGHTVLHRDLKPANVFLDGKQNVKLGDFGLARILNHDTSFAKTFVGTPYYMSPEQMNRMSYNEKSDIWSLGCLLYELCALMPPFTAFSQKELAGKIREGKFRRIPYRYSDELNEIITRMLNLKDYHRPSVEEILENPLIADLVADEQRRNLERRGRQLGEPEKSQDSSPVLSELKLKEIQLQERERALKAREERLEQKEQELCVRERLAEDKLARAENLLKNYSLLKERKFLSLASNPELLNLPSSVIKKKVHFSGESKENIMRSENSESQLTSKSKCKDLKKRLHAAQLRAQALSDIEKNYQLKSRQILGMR
# [2] = molecular target: FLT1/VEGFR1 (Homo sapiens, UniProt P17948); details: compound 10 μM, 10 μM ATP, duplicate (Data 1, Data 2), >100 activation, <100 inhibition; for remaining activity at 10 µM: read-out: % Enzyme Activity (relative to DMSO controls), FLT1/VEGFR1
# [3] = molecular target: MELK (Homo sapiens, UniProt Q14680); details: compound 10 μM, 10 μM ATP, duplicate (Data 1, Data 2), >100 activation, <100 inhibition; for remaining activity at 10 µM: read-out: % Enzyme Activity (relative to DMSO controls), MELK
# [4] = molecular target: LIMK1 (Homo sapiens, UniProt P53667); details: compound 10 μM, 10 μM ATP, duplicate (Data 1, Data 2), >100 activation, <100 inhibition; for remaining activity at 10 µM: read-out: % Enzyme Activity (relative to DMSO controls), LIMK1
# [5] = molecular target: TNIK (Homo sapiens, UniProt Q9UKE5); details: compound 10 μM, 10 μM ATP, duplicate (Data 1, Data 2), >100 activation, <100 inhibition; for remaining activity at 10 µM: read-out: % Enzyme Activity (relative to DMSO controls), TNIK
# [6] = molecular target: T2, ERK7/MAPK15 (Homo sapiens, UniProt Q8TD08); details: compound 10 μM, 10 μM ATP, duplicate (Data 1, Data 2), >100 activation, <100 inhibition; for remaining activity at 10 µM: read-out: % Enzyme Activity (relative to DMSO controls), ERK7/MAPK15
# T2 sequence (Q8TD08 1-544): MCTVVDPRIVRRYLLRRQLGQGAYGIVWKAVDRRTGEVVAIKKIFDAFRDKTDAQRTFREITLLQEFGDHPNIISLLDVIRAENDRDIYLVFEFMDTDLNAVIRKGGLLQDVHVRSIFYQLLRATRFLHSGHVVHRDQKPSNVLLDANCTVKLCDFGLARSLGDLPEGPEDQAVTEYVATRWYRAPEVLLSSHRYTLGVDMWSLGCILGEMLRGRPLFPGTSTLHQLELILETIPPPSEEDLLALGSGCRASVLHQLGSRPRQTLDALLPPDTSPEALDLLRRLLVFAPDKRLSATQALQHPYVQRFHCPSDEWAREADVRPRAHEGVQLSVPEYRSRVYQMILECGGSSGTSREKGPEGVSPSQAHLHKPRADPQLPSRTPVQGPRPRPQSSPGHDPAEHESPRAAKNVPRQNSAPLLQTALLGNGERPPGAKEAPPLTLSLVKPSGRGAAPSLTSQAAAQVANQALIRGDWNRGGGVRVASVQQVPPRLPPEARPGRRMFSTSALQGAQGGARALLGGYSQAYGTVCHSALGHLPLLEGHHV
# [7] = molecular target: PIM3 (Homo sapiens, UniProt Q86V86); details: compound 10 μM, 10 μM ATP, duplicate (Data 1, Data 2), >100 activation, <100 inhibition; for remaining activity at 10 µM: read-out: % Enzyme Activity (relative to DMSO controls), PIM3
# [8] = molecular target: MAPKAPK2 (Homo sapiens, UniProt P49137); details: compound 10 μM, 10 μM ATP, duplicate (Data 1, Data 2), >100 activation, <100 inhibition; for remaining activity at 10 µM: read-out: % Enzyme Activity (relative to DMSO controls), MAPKAPK2
# [9] = molecular target: T3, BMX/ETK (Homo sapiens, UniProt P51813); details: compound 10 μM, 10 μM ATP, duplicate (Data 1, Data 2), >100 activation, <100 inhibition; for remaining activity at 10 µM: read-out: % Enzyme Activity (relative to DMSO controls), BMX/ETK
# T3 sequence (P51813 1-675): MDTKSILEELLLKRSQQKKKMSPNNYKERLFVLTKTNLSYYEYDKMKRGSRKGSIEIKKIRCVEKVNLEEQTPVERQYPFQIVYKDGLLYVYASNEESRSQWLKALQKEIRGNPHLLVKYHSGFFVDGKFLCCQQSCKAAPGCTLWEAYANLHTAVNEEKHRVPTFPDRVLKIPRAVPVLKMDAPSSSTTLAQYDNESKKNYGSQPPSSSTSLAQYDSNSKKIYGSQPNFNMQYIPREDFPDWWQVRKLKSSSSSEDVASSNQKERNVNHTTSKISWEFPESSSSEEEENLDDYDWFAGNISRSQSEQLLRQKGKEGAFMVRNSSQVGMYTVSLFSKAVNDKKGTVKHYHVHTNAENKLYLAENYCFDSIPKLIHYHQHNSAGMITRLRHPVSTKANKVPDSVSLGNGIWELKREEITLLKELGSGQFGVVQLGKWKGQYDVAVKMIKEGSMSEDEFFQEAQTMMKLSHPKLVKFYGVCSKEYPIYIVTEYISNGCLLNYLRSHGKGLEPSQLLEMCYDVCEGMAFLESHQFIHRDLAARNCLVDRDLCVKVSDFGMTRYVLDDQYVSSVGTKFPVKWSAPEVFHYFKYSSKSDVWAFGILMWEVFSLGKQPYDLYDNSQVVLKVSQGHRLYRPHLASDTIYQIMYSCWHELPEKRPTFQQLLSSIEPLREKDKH
# Sequence of MELK (Q14680 whole entry, species assumed): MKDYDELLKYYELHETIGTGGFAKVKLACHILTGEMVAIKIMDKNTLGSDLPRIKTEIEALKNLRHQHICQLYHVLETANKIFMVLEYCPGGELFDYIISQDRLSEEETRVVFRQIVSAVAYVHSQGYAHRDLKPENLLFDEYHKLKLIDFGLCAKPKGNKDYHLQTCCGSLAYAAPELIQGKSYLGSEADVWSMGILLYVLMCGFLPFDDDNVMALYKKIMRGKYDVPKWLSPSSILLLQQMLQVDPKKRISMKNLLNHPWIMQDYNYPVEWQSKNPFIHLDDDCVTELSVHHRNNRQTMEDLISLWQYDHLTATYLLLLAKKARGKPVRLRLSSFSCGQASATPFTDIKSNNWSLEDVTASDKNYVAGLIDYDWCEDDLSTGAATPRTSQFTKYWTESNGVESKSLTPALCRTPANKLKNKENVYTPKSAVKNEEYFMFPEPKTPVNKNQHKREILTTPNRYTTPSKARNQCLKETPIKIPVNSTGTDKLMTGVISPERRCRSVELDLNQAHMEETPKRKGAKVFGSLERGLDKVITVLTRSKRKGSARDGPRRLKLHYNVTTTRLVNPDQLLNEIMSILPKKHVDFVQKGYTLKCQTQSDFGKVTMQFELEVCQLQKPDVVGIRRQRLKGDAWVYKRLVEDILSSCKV
# Sequence of MAPKAPK2 (P49137 whole entry, species assumed): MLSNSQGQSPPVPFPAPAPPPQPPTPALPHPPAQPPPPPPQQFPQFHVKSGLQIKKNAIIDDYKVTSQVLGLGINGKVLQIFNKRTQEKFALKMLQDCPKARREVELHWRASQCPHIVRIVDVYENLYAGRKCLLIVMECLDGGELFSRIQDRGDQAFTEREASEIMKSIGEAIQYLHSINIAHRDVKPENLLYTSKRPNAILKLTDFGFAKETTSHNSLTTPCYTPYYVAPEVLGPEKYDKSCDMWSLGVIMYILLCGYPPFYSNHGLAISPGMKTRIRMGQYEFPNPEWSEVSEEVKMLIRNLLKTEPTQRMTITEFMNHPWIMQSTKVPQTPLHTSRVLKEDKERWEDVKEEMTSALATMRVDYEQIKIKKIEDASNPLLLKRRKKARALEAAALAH
# Sequence of LIMK1 (P53667 whole entry, species assumed): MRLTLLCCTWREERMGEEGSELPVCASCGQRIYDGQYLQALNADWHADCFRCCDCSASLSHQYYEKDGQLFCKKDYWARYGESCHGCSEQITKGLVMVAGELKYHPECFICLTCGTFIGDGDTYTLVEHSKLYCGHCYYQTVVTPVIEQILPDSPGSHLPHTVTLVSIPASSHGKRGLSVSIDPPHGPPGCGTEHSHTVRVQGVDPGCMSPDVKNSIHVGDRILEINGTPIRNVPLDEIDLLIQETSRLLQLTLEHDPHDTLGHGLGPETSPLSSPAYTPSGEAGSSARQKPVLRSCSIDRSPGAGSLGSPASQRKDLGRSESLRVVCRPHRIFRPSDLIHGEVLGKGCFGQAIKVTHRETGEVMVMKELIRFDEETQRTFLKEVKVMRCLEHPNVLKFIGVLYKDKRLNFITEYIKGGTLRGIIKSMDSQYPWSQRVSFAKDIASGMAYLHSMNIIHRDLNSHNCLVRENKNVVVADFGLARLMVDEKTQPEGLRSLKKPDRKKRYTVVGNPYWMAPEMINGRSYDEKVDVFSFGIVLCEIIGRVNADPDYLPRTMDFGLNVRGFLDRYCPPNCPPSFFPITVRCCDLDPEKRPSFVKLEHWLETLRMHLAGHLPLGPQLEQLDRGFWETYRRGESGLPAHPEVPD
# Sequence of FLT1/VEGFR1 (P17948 27-1338): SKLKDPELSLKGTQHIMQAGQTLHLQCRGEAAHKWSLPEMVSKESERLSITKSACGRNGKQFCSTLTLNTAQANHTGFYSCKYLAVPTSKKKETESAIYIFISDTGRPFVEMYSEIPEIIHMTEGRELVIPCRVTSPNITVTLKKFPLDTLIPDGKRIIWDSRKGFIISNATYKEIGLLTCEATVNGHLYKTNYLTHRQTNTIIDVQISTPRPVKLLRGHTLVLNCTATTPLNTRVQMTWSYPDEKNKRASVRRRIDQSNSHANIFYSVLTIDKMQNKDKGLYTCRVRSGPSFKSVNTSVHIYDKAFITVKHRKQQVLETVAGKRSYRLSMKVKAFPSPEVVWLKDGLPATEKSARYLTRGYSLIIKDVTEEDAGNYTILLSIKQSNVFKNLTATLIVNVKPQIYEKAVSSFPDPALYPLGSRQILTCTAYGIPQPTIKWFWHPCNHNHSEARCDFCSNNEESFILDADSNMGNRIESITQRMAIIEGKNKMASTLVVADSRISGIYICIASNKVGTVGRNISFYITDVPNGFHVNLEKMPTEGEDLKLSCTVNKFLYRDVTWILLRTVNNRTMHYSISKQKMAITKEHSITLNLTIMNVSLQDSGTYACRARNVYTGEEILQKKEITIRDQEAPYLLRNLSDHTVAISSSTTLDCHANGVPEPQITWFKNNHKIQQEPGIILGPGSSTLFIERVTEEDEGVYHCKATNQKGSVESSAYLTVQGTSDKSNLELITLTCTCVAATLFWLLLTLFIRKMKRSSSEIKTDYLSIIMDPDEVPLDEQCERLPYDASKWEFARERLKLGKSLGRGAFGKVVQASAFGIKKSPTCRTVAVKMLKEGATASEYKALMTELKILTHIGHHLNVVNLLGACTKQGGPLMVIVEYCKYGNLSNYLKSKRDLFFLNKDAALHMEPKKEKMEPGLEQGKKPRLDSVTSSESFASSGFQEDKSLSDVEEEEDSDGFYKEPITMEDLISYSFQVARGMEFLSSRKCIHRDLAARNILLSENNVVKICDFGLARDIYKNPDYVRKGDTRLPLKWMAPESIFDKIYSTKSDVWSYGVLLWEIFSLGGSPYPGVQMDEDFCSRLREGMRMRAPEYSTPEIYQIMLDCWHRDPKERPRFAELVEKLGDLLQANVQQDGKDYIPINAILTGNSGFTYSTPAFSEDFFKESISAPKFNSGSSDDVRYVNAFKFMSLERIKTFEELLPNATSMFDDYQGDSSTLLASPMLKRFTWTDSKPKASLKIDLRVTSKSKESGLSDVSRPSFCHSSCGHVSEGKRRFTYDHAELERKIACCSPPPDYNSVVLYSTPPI
# Sequence of TNIK (Q9UKE5 whole entry, species assumed): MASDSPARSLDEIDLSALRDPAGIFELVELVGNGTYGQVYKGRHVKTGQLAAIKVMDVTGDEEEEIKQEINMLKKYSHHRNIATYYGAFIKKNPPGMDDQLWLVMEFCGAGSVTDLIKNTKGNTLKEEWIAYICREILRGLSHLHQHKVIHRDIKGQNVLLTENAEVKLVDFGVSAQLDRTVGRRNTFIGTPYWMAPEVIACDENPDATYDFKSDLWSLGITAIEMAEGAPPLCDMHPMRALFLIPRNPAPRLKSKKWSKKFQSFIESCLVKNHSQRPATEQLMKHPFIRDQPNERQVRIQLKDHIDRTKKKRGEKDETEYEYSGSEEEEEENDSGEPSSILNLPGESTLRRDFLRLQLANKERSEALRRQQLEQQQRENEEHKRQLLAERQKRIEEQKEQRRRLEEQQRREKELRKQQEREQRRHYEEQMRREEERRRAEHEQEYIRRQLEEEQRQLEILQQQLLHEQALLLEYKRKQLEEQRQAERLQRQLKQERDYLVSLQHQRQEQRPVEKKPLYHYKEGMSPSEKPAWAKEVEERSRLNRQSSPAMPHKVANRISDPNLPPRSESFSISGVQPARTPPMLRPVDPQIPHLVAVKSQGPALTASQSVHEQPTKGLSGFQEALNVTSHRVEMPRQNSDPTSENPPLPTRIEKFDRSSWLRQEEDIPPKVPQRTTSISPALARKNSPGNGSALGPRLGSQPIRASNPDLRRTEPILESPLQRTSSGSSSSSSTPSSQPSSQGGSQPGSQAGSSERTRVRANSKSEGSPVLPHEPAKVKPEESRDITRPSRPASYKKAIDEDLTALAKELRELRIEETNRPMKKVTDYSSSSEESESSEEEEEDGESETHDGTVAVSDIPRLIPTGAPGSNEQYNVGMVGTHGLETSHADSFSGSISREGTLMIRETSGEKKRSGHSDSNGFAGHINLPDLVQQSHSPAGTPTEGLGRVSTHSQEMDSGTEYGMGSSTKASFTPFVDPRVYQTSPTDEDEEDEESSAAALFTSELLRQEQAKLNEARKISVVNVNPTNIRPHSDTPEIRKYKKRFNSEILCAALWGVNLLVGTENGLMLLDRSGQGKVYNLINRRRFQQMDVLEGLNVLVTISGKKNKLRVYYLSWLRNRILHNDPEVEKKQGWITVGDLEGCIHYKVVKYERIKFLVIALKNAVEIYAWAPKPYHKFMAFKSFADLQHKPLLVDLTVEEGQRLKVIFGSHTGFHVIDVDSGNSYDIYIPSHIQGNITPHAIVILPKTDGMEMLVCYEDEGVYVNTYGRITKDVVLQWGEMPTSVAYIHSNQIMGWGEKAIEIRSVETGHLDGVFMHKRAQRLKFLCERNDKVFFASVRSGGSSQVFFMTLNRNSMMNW
smiles,measurement,setting,value
"CC(C)(CCCCc1cccc(CCCCC(C)(C)C(=O)O)c1)C(=O)O [Compound I-32, 6-[3-(5-carboxy-5-methylhexyl)-phenyl]-2,2-dimethylhexanoic acid]",remaining activity at 10 µM,[1],87.8%
same,remaining activity at 10 µM,[2],92.3%
same,remaining activity at 10 µM,[3],114%
same,remaining activity at 10 µM,[4],83.8%
same,remaining activity at 10 µM,[5],101%
same,remaining activity at 10 µM,[6],104%
same,remaining activity at 10 µM,[7],90%
same,remaining activity at 10 µM,[8],91.7%
same,remaining activity at 10 µM,[9],53.7%
"CC(C)(CCCCc1ccc(CCCCC(C)(C)C(=O)O)cc1)C(=O)O [Compound I-1, 6-[4-(5-carboxy-5-methylhexyl)-phenyl]-2,2-dimethylhexanoic acid]",remaining activity at 10 µM,[1],90.3%
same,remaining activity at 10 µM,[2],90.3%
same,remaining activity at 10 µM,[3],110%
same,remaining activity at 10 µM,[4],81%
same,remaining activity at 10 µM,[5],106%
same,remaining activity at 10 µM,[6],100%
same,remaining activity at 10 µM,[7],87.9%
same,remaining activity at 10 µM,[8],93.1%
same,remaining activity at 10 µM,[9],55%
"CC(C)(CCCCc1cccc(CCCCC(C)(C)C(=O)SCCNC(=O)CCNC(=O)[C@H](O)C(C)(C)COP(=O)(O)OP(=O)(O)OC[C@H]2O[C@@H](n3cnc4c(N)ncnc43)[C@H](O)[C@@H]2OP(=O)(O)O)c1)C(=O)O [Compound I-32-CoA, 6-[3-(5-Carboxy-5-methylhexyl)-phenyl]-2,2-dimethylhexanoic acid Coenzyme A Ester]","% Enzyme Activity (relative to DMSO controls), NEK2",[1],35.98% and 34.99%
same,"% Enzyme Activity (relative to DMSO controls), FLT1/VEGFR1",[2],52.06% and 51.61%
same,"% Enzyme Activity (relative to DMSO controls), MELK",[3],28.56% and 27.35%
same,"% Enzyme Activity (relative to DMSO controls), LIMK1",[4],47.31% and 45.01%
same,"% Enzyme Activity (relative to DMSO controls), TNIK",[5],70.02% and 66.13%
same,"% Enzyme Activity (relative to DMSO controls), ERK7/MAPK15",[6],88.39% and 80.61%
same,"% Enzyme Activity (relative to DMSO controls), PIM3",[7],51.10% and 43.67%
same,"% Enzyme Activity (relative to DMSO controls), MAPKAPK2",[8],17.17% and 15.90%
same,"% Enzyme Activity (relative to DMSO controls), BMX/ETK",[9],49.54% and 43.87%
"CC(C)(CCCCc1ccc(CCCCC(C)(C)C(=O)SCCNC(=O)CCNC(=O)[C@H](O)C(C)(C)COP(=O)(O)OP(=O)(O)OC[C@H]2O[C@@H](n3cnc4c(N)ncnc43)[C@H](O)[C@@H]2OP(=O)(O)O)cc1)C(=O)O [Compound I-1-CoA, 6-[4-(5-carboxy-5-methylhexyl)-phenyl]-2,2-dimethylhexanoic acid Coenzyme A ester]","% Enzyme Activity (relative to DMSO controls), NEK2",[1],0.89% and 0.63%
same,"% Enzyme Activity (relative to DMSO controls), FLT1/VEGFR1",[2],84.17% and 82.94%
same,"% Enzyme Activity (relative to DMSO controls), MELK",[3],23.02% and 21.99%
same,"% Enzyme Activity (relative to DMSO controls), LIMK1",[4],77.88% and 76.61%
same,"% Enzyme Activity (relative to DMSO controls), TNIK",[5],39.22% and 36.50%
same,"% Enzyme Activity (relative to DMSO controls), ERK7/MAPK15",[6],51.57% and 45.02%
same,"% Enzyme Activity (relative to DMSO controls), PIM3",[7],73.92% and 70.32%
same,"% Enzyme Activity (relative to DMSO controls), MAPKAPK2",[8],85.04% and 84.66%
same,"% Enzyme Activity (relative to DMSO controls), BMX/ETK",[9],49.55% and 47.76%
